{"source": "paper PMC3274641", "about": "(Bioorganic & medicinal chemistry letters, 2011)", "key": {"Hα3β4 nAChRs [1]": {"biological_target": "T1, Hα3β4 nAChRs (Homo sapiens, UniProt P30926+P32297)", "T1 sequence (P32297 32-505)": "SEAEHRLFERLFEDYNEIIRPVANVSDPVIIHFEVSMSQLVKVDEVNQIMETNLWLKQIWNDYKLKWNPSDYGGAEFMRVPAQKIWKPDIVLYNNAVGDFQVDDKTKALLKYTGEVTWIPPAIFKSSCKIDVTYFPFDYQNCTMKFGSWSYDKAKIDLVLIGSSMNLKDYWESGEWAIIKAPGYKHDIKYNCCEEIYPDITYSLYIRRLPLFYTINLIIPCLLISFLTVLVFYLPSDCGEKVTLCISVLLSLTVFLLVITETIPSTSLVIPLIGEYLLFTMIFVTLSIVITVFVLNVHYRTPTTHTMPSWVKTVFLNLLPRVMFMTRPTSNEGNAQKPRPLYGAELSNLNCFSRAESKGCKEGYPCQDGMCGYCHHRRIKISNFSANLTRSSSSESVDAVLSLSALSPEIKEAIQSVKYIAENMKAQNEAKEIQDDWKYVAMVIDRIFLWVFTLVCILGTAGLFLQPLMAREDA", "T1 sequence (P30926 22-498)": "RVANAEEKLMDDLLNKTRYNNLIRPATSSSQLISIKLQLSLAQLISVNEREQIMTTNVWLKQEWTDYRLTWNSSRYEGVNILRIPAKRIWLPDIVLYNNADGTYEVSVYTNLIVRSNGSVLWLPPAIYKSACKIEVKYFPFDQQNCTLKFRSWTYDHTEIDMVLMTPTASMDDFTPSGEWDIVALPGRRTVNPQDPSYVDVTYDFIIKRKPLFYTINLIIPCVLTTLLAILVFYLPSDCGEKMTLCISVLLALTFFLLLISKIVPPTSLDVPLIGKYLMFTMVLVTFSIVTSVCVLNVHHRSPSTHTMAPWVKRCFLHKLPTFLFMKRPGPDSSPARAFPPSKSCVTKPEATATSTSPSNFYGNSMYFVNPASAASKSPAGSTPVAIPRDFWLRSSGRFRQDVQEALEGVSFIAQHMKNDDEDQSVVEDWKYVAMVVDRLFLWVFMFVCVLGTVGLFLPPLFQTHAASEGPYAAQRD", "conditions": "scaffolds; previously reported data; cited from earlier work"}, "Hα4β2 nAChRs [2]": {"biological_target": "T2, Hα4β2 nAChRs (Homo sapiens, UniProt P17787+P43681)", "T2 sequence (P43681 29-627 limits assumed)": "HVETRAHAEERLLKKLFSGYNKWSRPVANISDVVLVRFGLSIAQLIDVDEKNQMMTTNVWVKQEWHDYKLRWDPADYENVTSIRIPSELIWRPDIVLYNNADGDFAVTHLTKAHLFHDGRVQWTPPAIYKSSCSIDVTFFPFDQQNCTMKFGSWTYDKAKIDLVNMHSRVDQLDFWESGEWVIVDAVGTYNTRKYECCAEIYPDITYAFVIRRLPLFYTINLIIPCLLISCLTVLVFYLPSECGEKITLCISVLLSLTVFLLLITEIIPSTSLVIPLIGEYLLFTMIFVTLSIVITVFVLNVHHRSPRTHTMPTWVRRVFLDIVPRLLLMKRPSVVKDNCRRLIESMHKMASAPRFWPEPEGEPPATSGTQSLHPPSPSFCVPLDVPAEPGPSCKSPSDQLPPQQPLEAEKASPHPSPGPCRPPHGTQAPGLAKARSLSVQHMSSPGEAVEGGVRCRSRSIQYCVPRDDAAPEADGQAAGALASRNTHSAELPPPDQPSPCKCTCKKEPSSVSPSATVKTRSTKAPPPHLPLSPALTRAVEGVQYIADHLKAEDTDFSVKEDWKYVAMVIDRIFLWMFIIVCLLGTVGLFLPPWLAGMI", "T2 sequence (P17787 26-502)": "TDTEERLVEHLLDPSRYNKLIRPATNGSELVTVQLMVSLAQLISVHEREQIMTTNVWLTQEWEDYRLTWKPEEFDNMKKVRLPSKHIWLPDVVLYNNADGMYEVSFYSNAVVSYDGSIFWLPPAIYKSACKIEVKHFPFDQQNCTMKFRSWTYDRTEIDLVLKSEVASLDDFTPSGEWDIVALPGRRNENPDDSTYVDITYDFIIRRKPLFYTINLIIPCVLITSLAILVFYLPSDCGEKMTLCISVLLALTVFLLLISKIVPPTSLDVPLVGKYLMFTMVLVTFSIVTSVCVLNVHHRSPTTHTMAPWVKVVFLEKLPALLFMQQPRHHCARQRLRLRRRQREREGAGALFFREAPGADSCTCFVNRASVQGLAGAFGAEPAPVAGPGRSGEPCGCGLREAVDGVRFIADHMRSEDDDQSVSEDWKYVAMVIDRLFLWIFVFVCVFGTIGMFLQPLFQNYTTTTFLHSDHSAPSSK", "conditions": "scaffolds; previously reported data; cited from earlier work"}, "Hα3β4 nAChRs [3]": {"biological_target": "T1, Hα3β4 nAChRs", "experiment": "Inhibition of Hα3β4 nAChRs by NAMs", "type": "cell-based", "conditions": "for change in potency on Hα3β4 nAChRs compared to scaffolds (in words): scaffolds KAB-18, KAB-24, COB-4, respectively"}, "Hα4β2 nAChRs [4]": {"biological_target": "T2, Hα4β2 nAChRs", "experiment": "cell-based", "type": "cell-based", "conditions": "for fold more potent than lead molecule KAB-18: Hα4β2 nAChRs"}, "[5]": {"conditions": "at the 1 year mark; agonist-antagonist therapy in combination with the nicotine patch; cited from earlier work"}}, "note": "Entries after “also recorded” stand apart in the source; their conditions may differ. Like-named read-outs stand apart in the source and are kept apart here.", "data": [{"smiles": "O=C(OCC1CCN(CCCc2ccccc2)CC1)c1ccccc1-c1ccccc1", "note": "[COB-4]", "values": [{"measurement": "nH, Hill coefficient, Hα3β4 nAChRs", "setting": "Hα3β4 nAChRs [1]", "result": "−1.0"}, {"measurement": "nH, Hill coefficient, Hα4β2 nAChRs", "setting": "Hα4β2 nAChRs [2]", "result": "−0.8"}]}, {"smiles": "O=C(NCc1ccccc1)c1ccccc1-c1ccccc1", "note": "[COB-170]", "values": [{"measurement": "IC50", "setting": "Hα3β4 nAChRs [3]", "result": 8.5, "unit": "µM"}, {"measurement": "nH, Hill coefficient, Hα3β4 nAChRs", "setting": "Hα3β4 nAChRs [3]; COB series", "result": "−1.8"}, {"measurement": "selectivity for Hα4β2 nAChRs over Hα3β4 nAChRs (in words)", "setting": "Hα4β2 nAChRs [4]", "result": "nonselective"}, {"measurement": "nH, Hill coefficient, Hα4β2 nAChRs", "setting": "Hα4β2 nAChRs [4]; COB series", "result": "−1.1"}, {"measurement": "fold more potent than lead molecule KAB-18", "setting": "Hα4β2 nAChRs [4]", "result": 2, "unit": "fold"}]}, {"smiles": "O=C(Nc1ccccc1)c1ccccc1-c1ccccc1", "note": "[COB-171]", "values": [{"measurement": "nH, Hill coefficient, Hα3β4 nAChRs", "setting": "Hα3β4 nAChRs [3]; COB series", "result": "−2.2"}, {"measurement": "selectivity for Hα4β2 nAChRs over Hα3β4 nAChRs (in words)", "setting": "Hα4β2 nAChRs [4]", "result": "nonselective"}, {"measurement": "nH, Hill coefficient, Hα4β2 nAChRs", "setting": "Hα4β2 nAChRs [4]; COB series", "result": "−1.3"}, {"measurement": "fold more potent than lead molecule KAB-18", "setting": "Hα4β2 nAChRs [4]", "result": 2, "unit": "fold"}]}, {"smiles": "O=C(NCc1cccc2ccccc12)c1ccccc1-c1ccccc1", "note": "[COB-172]", "values": [{"measurement": "nH, Hill coefficient, Hα3β4 nAChRs", "setting": "Hα3β4 nAChRs [3]; COB series", "result": "−0.4"}, {"measurement": "selectivity for Hα4β2 nAChRs over Hα3β4 nAChRs (in words)", "setting": "Hα4β2 nAChRs [4]", "result": "maintained selectivity for Hα4β2 nAChRs"}, {"measurement": "nH, Hill coefficient, Hα4β2 nAChRs", "setting": "Hα4β2 nAChRs [4]; COB series", "result": "−0.7"}, {"measurement": "change in potency on Hα4β2 nAChRs (in words)", "setting": "Hα4β2 nAChRs [4]; compared to lead molecule KAB-18", "result": "no change in potency; also recorded: maintained potency"}]}, {"smiles": "O=C(Nc1ccccn1)c1ccccc1-c1ccccc1", "note": "[COB-173]", "values": [{"measurement": "nH, Hill coefficient, Hα3β4 nAChRs", "setting": "Hα3β4 nAChRs [3]; COB series", "result": "−0.9"}, {"measurement": "selectivity for Hα4β2 nAChRs over Hα3β4 nAChRs (in words)", "setting": "Hα4β2 nAChRs [4]", "result": "nonselective"}, {"measurement": "nH, Hill coefficient, Hα4β2 nAChRs", "setting": "Hα4β2 nAChRs [4]; COB series", "result": "−1.0"}]}, {"smiles": "O=C(Nc1ccncn1)c1ccccc1-c1ccccc1", "note": "[COB-174]", "values": [{"measurement": "nH, Hill coefficient, Hα3β4 nAChRs", "setting": "Hα3β4 nAChRs [3]; COB series", "result": "−0.9"}, {"measurement": "selectivity for Hα4β2 nAChRs over Hα3β4 nAChRs (in words)", "setting": "Hα4β2 nAChRs [4]", "result": "nonselective"}, {"measurement": "nH, Hill coefficient, Hα4β2 nAChRs", "setting": "Hα4β2 nAChRs [4]; COB series", "result": "−1.5"}]}, {"smiles": "O=C(Nc1cccc2ccccc12)c1ccccc1-c1ccccc1", "note": "[COB-175]", "values": [{"measurement": "nH, Hill coefficient, Hα3β4 nAChRs", "setting": "Hα3β4 nAChRs [3]; COB series", "result": "−1.2"}, {"measurement": "nH, Hill coefficient, Hα4β2 nAChRs", "setting": "Hα4β2 nAChRs [4]; COB series", "result": "−0.8"}, {"measurement": "fold preference for Hα4β2 nAChRs", "setting": "Hα4β2 nAChRs [4]; over Hα3β4 nAChRs", "result": 2, "unit": "fold"}]}, {"smiles": "O=C(OC1CCCN(CCCc2ccccc2)C1)c1ccccc1-c1ccccc1", "note": "(centres unmarked) [DDR-14]", "values": [{"measurement": "nH, Hill coefficient, Hα3β4 nAChRs", "setting": "Hα3β4 nAChRs [1]", "result": "−1.4"}, {"measurement": "nH, Hill coefficient, Hα4β2 nAChRs", "setting": "Hα4β2 nAChRs [2]", "result": "−1.6"}]}, {"smiles": "O=C(OCC1CCCN(CCCc2ccccc2)C1)c1ccccc1-c1cccc2ccccc12", "note": "(centres unmarked) [FFB-1]", "values": [{"measurement": "IC50", "setting": "Hα3β4 nAChRs [3]", "result": 178, "unit": "µM"}, {"measurement": "Obs. [SI] QSSR (Hα4β2/Hα3β4)", "setting": "Hα4β2 nAChRs [4]; training set, selectivity Hα4β2 vs Hα3β4", "result": 1.29}]}, {"smiles": "O=C(OC1CCCN(C(=O)CCc2ccccc2)C1)c1ccccc1-c1ccccc1", "note": "(centres unmarked) [IMB-132]", "values": [{"measurement": "nH, Hill coefficient, Hα3β4 nAChRs", "setting": "Hα3β4 nAChRs [3]; IMB series", "result": "−1.6"}, {"measurement": "fold decrease in potency on Hα3β4 nAChRs compared to scaffold molecule", "setting": "Hα3β4 nAChRs [3]; compared to DDR-14", "result": 2, "unit": "fold"}, {"measurement": "IC50", "setting": "Hα4β2 nAChRs [4]", "result": 2.7, "unit": "µM"}, {"measurement": "nH, Hill coefficient, Hα4β2 nAChRs", "setting": "Hα4β2 nAChRs [4]; IMB series", "result": "−1.6"}]}, {"smiles": "O=C(OCC1CCCN(C(=O)CCc2ccccc2)C1)c1ccccc1C(F)(F)F", "note": "(centres unmarked) [IMB-134]", "values": [{"measurement": "nH, Hill coefficient, Hα3β4 nAChRs", "setting": "Hα3β4 nAChRs [3]; IMB series", "result": "−2.1"}, {"measurement": "change in potency on Hα3β4 nAChRs compared to scaffolds (in words)", "setting": "Hα3β4 nAChRs [3]", "result": "no change in potency"}, {"measurement": "nH, Hill coefficient, Hα4β2 nAChRs", "setting": "Hα4β2 nAChRs [4]; IMB series", "result": "−1.5"}]}, {"smiles": "O=C(OCC1CCN(C(=O)CCc2ccccc2)CC1)c1ccccc1-c1ccccc1", "note": "[IMB-135]", "values": [{"measurement": "nH, Hill coefficient, Hα3β4 nAChRs", "setting": "Hα3β4 nAChRs [3]; IMB series", "result": "−1.5"}, {"measurement": "change in potency on Hα3β4 nAChRs compared to scaffolds (in words)", "setting": "Hα3β4 nAChRs [3]", "result": "no change in potency"}]}, {"smiles": "O=C(OCC1CCCN(CCCc2ccccc2)C1)c1ccccc1-c1ccccc1", "note": "(centres unmarked) [KAB-18]", "values": [{"measurement": "nH, Hill coefficient, Hα4β2 nAChRs", "setting": "Hα4β2 nAChRs [2]", "result": "−1.4"}]}, {"smiles": "O=C(OCC1CCCN(CCCc2ccccc2)C1)c1ccccc1C(F)(F)F", "note": "(centres unmarked) [KAB-24]", "values": [{"measurement": "nH, Hill coefficient, Hα3β4 nAChRs", "setting": "Hα3β4 nAChRs [1]", "result": "−0.8"}, {"measurement": "nH, Hill coefficient, Hα4β2 nAChRs", "setting": "Hα4β2 nAChRs [2]", "result": "−0.8"}]}, {"smiles": "CNC1(C)C2CCC(C2)C1(C)C", "note": "(centres unmarked) [Mecamylamine]", "values": [{"measurement": "abstinence", "setting": "[5]", "result": 40, "unit": "%"}]}]}
